According to the NIST ThermoML archive (doi:10.1021/je5010643):
± gives the expanded uncertainty stated by the source.

How the values were obtained:
[1] = refractive index (Na D-line) (dimensionless); conditions: 101.32 kPa, Liquid, Standard Abbe refractometry
[2] = 101.32 kPa, Liquid; for speed of sound: Frequency=3 MHz, Linear variable-path acoustic interferometer
[3] = refractive index (Na D-line) (dimensionless); xn = mol fraction of the nth substance listed; conditions: 101.32 kPa, Liquid, Standard Abbe refractometry, x1 = 1
[4] = xn = mol fraction of the nth substance listed; conditions: 101.32 kPa, Liquid, x1 = 1; for speed of sound: Frequency=3 MHz, Linear variable-path acoustic interferometer

C1COCCO1 [1,4-dioxane]
Conditions | mass density, [2] [kg/m3] | refractive index, [1] | speed of sound, [2] [m/s]
295.15 K | 1030.86 ± 0.9 | 1.4211 ± 0.0004 | 1357.7 ± 1.8
298.15 K | 1027.59 ± 0.88 | 1.4197 ± 0.0004 | 1344.8 ± 1.8
301.15 K | 1024.32 ± 0.86 | 1.4183 ± 0.0004 | 1331.9 ± 1.7
304.15 K | 1021.05 ± 0.83 | 1.4168 ± 0.0004 | 1319 ± 1.7
307.15 K | 1017.78 ± 0.81 | 1.4154 ± 0.0004 | 1306.2 ± 1.7
310.15 K | 1014.51 ± 0.79 | 1.4138 ± 0.0004 | 1293.3 ± 1.7
313.15 K | 1011.24 ± 0.77 | 1.4124 ± 0.0004 | 1280.4 ± 1.7

C1COCCO1 [1,4-dioxane] + CC(C)C(=O)O
Conditions | mass density, [4] [kg/m3] | refractive index, [3] | speed of sound, [4] [m/s]
295.15 K | 1030.86 ± 0.9 | 1.4211 ± 0.0004 | 1357.7 ± 1.8
298.15 K | 1027.59 ± 0.88 | 1.4197 ± 0.0004 | 1344.8 ± 1.8
301.15 K | 1024.32 ± 0.86 | 1.4183 ± 0.0004 | 1331.9 ± 1.7
304.15 K | 1021.05 ± 0.83 | 1.4168 ± 0.0004 | 1319 ± 1.7
307.15 K | 1017.78 ± 0.81 | 1.4154 ± 0.0004 | 1306.2 ± 1.7
310.15 K | 1014.51 ± 0.79 | 1.4138 ± 0.0004 | 1293.3 ± 1.7
313.15 K | 1011.24 ± 0.77 | 1.4124 ± 0.0004 | 1280.4 ± 1.7

CC(C)C(=O)O [2-methylpropanoic acid]
Conditions | mass density, [2] [kg/m3] | refractive index, [1] | speed of sound, [2] [m/s]
295.15 K | 945.28 ± 1 | 1.3919 ± 0.0004 | 1100.2 ± 1.6
298.15 K | 942.22 ± 1 | 1.3907 ± 0.0004 | 1086 ± 1.6
301.15 K | 939.16 ± 1.1 | 1.3895 ± 0.0004 | 1072.1 ± 1.6
304.15 K | 936.1 ± 1.1 | 1.3883 ± 0.0004 | 1058.2 ± 1.6
307.15 K | 933.04 ± 1.1 | 1.3872 ± 0.0004 | 1043.4 ± 1.6
310.15 K | 929.98 ± 1.1 | 1.386 ± 0.0004 | 1030.8 ± 1.6
313.15 K | 926.92 ± 1.1 | 1.3849 ± 0.0004 | 1015.2 ± 1.6
